Results from ChEMBL document CHEMBL3507680, “University of Dundee, Gates Library screen for HepG2 cell viability”.

Assay: Human HepG2 cell viability assay in 384 well format
Assay type: toxicity, cell-based
Design: dose 125 nL, time 70.5 hour; cytotoxicity at 70.5 h: concentration not given beside the values
Conditions: HepG2 cells, read-out: Inhibition

SMILES | cytotoxicity at 70.5 h [%]
O=C(COCc1nc(-c2ccncc2)no1)N1CCCCCC1 | -5.87
COc1ccc(Nc2nc3c(C)nn(C)c3c(=O)n2C)c(OC)c1 | -18.2
CCOc1ccccc1Nc1nc2c(C)nn(C)c2c(=O)n1C | 8.71
CCN1CCN(c2nc(C(C)C)nc3c(C)nn(CC)c23)CC1 | 13.6
CCCc1nc(N2CCN(CC)CC2)c2c(n1)c(C)nn2CC | -5.26
CCn1cc(N)c(C(=O)NCc2cnn(C)c2)n1 | -7.78
CNc1cc(C)nc(C2CN(Cc3cncs3)CCO2)c1 (stereo unspecified) | -11.5
Cc1nc(C2CCCN2C(=O)CCc2ccccc2)ncc1C(N)=O (stereo unspecified) | -11.8
O=C(c1cnco1)N1C[C@@H](O)[C@H](Oc2cccc(F)c2)C1 | 14.4
O=C(O)CN1CCOCC(Cc2ccc(Cl)cc2)C1 (stereo unspecified) | -7.85
Cc1ccnc(C2CCCN2C(=O)c2cnccn2)n1 (stereo unspecified) | -9.28
COCCC(=O)N1CCCC1c1nccc(C)n1 (stereo unspecified) | -12.1
NC(=O)CN1CCOCC(Cc2ccccc2)C1 (stereo unspecified) | -11.7
Cc1ccccc1CN(C)C(=O)c1cc(C2CCCN2C)ccn1 (stereo unspecified) | 10.5
Cc1ncsc1CN1CCN(C2CCOCC2)CC(C(N)=O)C1 (stereo unspecified) | 10.5
c1ccc(-c2nnc(C3CCCN(CC4CCCCC4)C3)o2)nc1 (stereo unspecified) | -7.93
CCC(=O)N1CCC(c2nc(O)c3c(n2)CN(C2CCCCC2)CC3)C1 (stereo unspecified) | 31.2
O=C(c1cccnc1)N1CCC(c2nc(O)cc(-c3ccncc3)n2)C1 (stereo unspecified) | -10.5
O=C(c1ccccn1)N1CCC(c2nc(O)cc(-c3ccncc3)n2)C1 (stereo unspecified) | -5.15
CC(=O)N1CCC(c2ccnc(Nc3cncnc3)n2)CC1 | -8.15
O=C(C1CC1)N1CCc2nc(C3CCN(C(=O)C4CC4)C3)nc(O)c2C1 (stereo unspecified) | -10
NC(=O)CN1CCCC(CCCc2ccccn2)(C(N)=O)C1 (stereo unspecified) | -3
O=C(Cn1ccnc1)N1C[C@@H]2CC[C@H](Oc3cccc(F)c3)[C@@H]2C1 | -6.97
CS(=O)(=O)N1CCCC1c1cccc(Cc2ccccc2F)n1 (stereo unspecified) | -6.97

SMILES | cytotoxicity at 70.5 h [%]
Cc1nc(NC2CCCC2)cc(C2CCN2C(=O)c2cnn(C)c2)n1 (stereo unspecified) | -3.93
CCC(=O)N1CCC(Cc2cc(Nc3ncccn3)ncn2)CC1 | -4.23
O=C(C1CCC1)N1CCCC(c2ccnc(Nc3cnccn3)n2)C1 (stereo unspecified) | -7.38
CN(C)C(=O)C1CN(Cc2nccs2)CCN(S(C)(=O)=O)C1 (stereo unspecified) | -4.9
Cc1cc(-c2cnc(NC3CCCC3)nc2-c2ccco2)on1 | -6.66
Cc1cc(-c2cnc(NC3CCCC3)nc2-c2ccc(C)o2)on1 | -5.77
CCn1cc(CN2CCc3nc(-c4ccccn4)nc(O)c3C2)cn1 | -10
C=Cn1ncc(CN2CCc3nc(-c4ccncc4)nc(O)c3C2)c1C | -4.39
Cc1cc(-c2cnc(NCc3ccc4c(c3)OCO4)nc2C(C)C)on1 | -4.67
Cc1cc(-c2cnc(NC3CC3)nc2-c2ccco2)on1 | -12.6
COc1ccccc1CN1CCc2c(nc(-c3ccccn3)[nH]c2=O)C1 | 12.7
O=C(O)C1(Cc2cccc(-c3ccc(F)cc3)c2)CCOCC1 | 9.21
Cc1ncncc1C(=O)N1CCC(O)(CN(C)Cc2ccc(F)cc2)C1 (stereo unspecified) | -5.31
CC(=O)NC(=O)C1(CCCc2ccncc2)CCN1 (stereo unspecified) | -2.25
NC(=O)C1(c2cnccn2)CCCN1Cc1ccc(F)c(F)c1 (stereo unspecified) | 7.58
CC(=O)N1CCCC1c1cncc(Oc2ccc(F)cc2)n1 (stereo unspecified) | -3.89
Cc1ccc(C(=O)N2CCOC(c3nc(-c4ncccn4)no3)C2)cc1 (stereo unspecified) | -2.85
Cc1noc2nc(C3CCCN(Cc4ccncc4)C3)cc(C(F)F)c12 (stereo unspecified) | -3.5
O=C(NCC1CC1)Nc1cnc2ccc(F)cc2c1O | -3.07
O=C(NCCO)Nc1cnc2cc(Cl)ccc2c1O | -5.27
COCCC(=O)N1CCCC(c2nc(O)cc(-c3ccncc3)n2)C1 (stereo unspecified) | 18
CC(C)(C)C(=O)N1CCC(c2nc(O)cc(-c3ccncc3)n2)CC1 | -1.05
CCn1cc(CN2CCC(O)(Cn3ccc4ncccc43)CC2)cn1 | -0.72
OC1(Cn2ccc3ncccc32)CCN(Cc2cc(F)cc(F)c2)CC1 | 5.69

SMILES | cytotoxicity at 70.5 h [%]
c1cnc2[nH]c(C3CCNCC3)c(CN3CCOCC3)c2c1 | -1.47
CCC(CC)C(=O)NC1CCCc2nc(N3CCOCC3)ncc21 (stereo unspecified) | -4.12
Cc1ccc(=O)n(CC2(O)CCN(Cc3cccs3)CC2)n1 | -8.17
CCn1cc(CN2CCC(O)(Cn3nc(C)ccc3=O)CC2)cn1 | -4.18
O=C(NC1CC1)C1(Cc2cc(-c3ccc(F)cc3F)no2)CCOCC1 | 0.221
Cc1ncsc1C(=O)N1CCCC(c2cc(C(F)F)n3ncnc3n2)C1 (stereo unspecified) | 0.833
c1cnc2[nH]c(C3CCCC3)c(CN3CCCCC3)c2c1 | -7.43
CSc1ccc(CN2C[C@@H]3CC[C@@](O)(c4ccc(C)cn4)[C@@H]3C2)cc1 | 41.8
Cc1ccc([C@]2(O)CC[C@H]3CN(Cc4ccc(Cl)cc4Cl)C[C@H]32)nc1 | 27.6
CCN1CCN(Cc2c(C3CCCC3)[nH]c3ncccc23)CC1 | -6.15
CC(=O)NC1CCN(C(=O)Nc2cccc(SC(F)F)c2)CC1 | -0.185
CC(NC(=O)CCN1CCOC1=O)(c1ccccc1)c1ccccc1 | 0.0243
CC1CCCCN1C(=O)CCn1cnc2sccc2c1=O (stereo unspecified) | -5.84
CCC(C)(NC(=O)CCN1CCOC1=O)C(=O)OC (stereo unspecified) | 20.8
O=C(c1cnc(NCc2cccnc2)c(Cl)c1)N1CCCCC1 | -12.2
CC(C)(C)C(N)c1nc(-c2nnc[nH]2)no1 (stereo unspecified) | -2.07
Cc1ccc(C)c(Oc2ccc(CNC(=O)C3CCC(=O)N3)cn2)c1 (stereo unspecified) | -4.69
O=C(Nc1ccc(-c2csnn2)cc1)N1CCN2CCCCC2C1 (stereo unspecified) | 5.22
CCOc1ccc(NC(=O)NC2CCc3[nH]ncc3C2)cn1 (stereo unspecified) | -2.96
CCSc1ccc(NC(=O)NC2CCc3[nH]ncc3C2)cn1 (stereo unspecified) | -4.32
Cc1ccc2c(c1)N(C(=O)c1nccnc1N)CC(C)O2 (stereo unspecified) | -3.11
O=C(NCC1CCCN1CCc1ccccc1)NCC1(O)CCC1 (stereo unspecified) | -9.32
Cc1noc(C)c1CN(C)C(=O)C1CCCN1S(N)(=O)=O (stereo unspecified) | 17.7
CC(C)OCCS(=O)(=O)NC1CCN(C2CCCC2)C1 (stereo unspecified) | 8.61

SMILES | cytotoxicity at 70.5 h [%]
O=C(C1CCCOC1)N(CC(F)F)c1cccc(Cl)c1 (stereo unspecified) | 2.67
CCC(NC(=O)Cn1ccc(=O)n(C)c1=O)c1ccc(OC)cc1 (stereo unspecified) | -9.09
CCC(NC(=O)Cn1ccc(=O)n(C)c1=O)c1ccccc1OC (stereo unspecified) | -7
NC(=O)C(NC(=O)CCc1ccc(Cl)s1)c1ccccc1 (stereo unspecified) | -7.77
O=S1(=O)CCC(c2nnc(-c3cnc4onc(C5CC5)c4c3)o2)C1 (stereo unspecified) | -2.78
c1nc2onc(C3CC3)c2cc1-c1nnc(C2CC2)o1 | 1.7
COc1ccc(CNc2cc(-c3nc(C)no3)ccn2)c(OC)c1 | -1.3
Cc1nn(C)c(C)c1OCC(=O)N1CCCc2c(F)ccc(F)c21 | 18.1
CS(=O)(=O)CCC(=O)N1CCC(c2ccc(F)c(F)c2)CC1 | 2.26
CC1CCC(N2CCC(NS(=O)(=O)CCOC(C)C)CC2)CC1 (stereo unspecified) | 14.8
CCC1COCCN1C(=O)CNC(=O)c1ccoc1C (stereo unspecified) | -5.54
Cc1noc(C)c1CN(C)C(=O)C1CCCCN1CC(C)C (stereo unspecified) | 5.24
COCCCN(C)c1nc(-c2ccncc2)nc(C)c1C | -5.34
Cc1cccc2nc(CN3CCCC(C)C3)cc(=O)n12 (stereo unspecified) | 13.9
Cc1noc(C)c1Cc1nc(C2CC2)no1 | -2.18
CC1COc2ccccc2N1C(=O)CCc1cscn1 (stereo unspecified) | 3.54
CC(C)N(CC(=O)Nc1ccc(Br)cc1Cl)Cc1cccnc1 | 38.4
CCc1noc(CNc2cc3c(cc2Cl)OCCCO3)n1 | -11
Cc1ccc(C2CCCN2Cc2nc(-c3ccco3)no2)cc1 (stereo unspecified) | -1.81
Cc1cccc(C(=O)N(C)CC(=O)N2CCCC2)c1C | -14.8
CC(C)C(=O)NCc1cc(Br)ccc1F | -9.54
Cc1cc(C2CCCN2Cc2cc(-c3ccco3)on2)on1 (stereo unspecified) | -14.5
Cc1cc(C2CCCN2Cc2nc(-c3ccco3)no2)on1 (stereo unspecified) | -0.568
Cc1cc(C2CCCN2Cc2nnc(-c3ccco3)o2)on1 (stereo unspecified) | -8.06

SMILES | cytotoxicity at 70.5 h [%]
Cc1noc(C)c1CS(=O)(=O)Cc1nc(C2CC2)no1 | -0.106
CC(C)CNC(=O)c1ccc(NC(=O)NC(C)c2ccccn2)cc1 (stereo unspecified) | -5.93
CCCNC(=O)c1ccc(NC(=O)NC(C)c2ccccn2)cc1 (stereo unspecified) | -8.01
COc1ccc(CNCCC(=O)N2CCc3sccc3C2)cc1O | 5.44
CC(NC(N)=O)C(=O)NCc1ccc(Br)c(F)c1 (stereo unspecified) | 0.261
CC1COc2ccccc2N1C(=O)c1cscn1 (stereo unspecified) | -9.82
O=S(=O)(NCCCn1ccc2ccccc21)N1CCCCC1 | 16.7
O=c1oc(-c2ccc(F)cc2)nn1CC1CCOC1 (stereo unspecified) | 16.4
Cc1c(Cl)cccc1NC(=O)CN(Cc1cccnc1)C(C)C | 1.97
CNC(=O)C1(CCCc2ccncc2)CCCCN1 (stereo unspecified) | 15.5
O=C(NCCn1nc(C2CCNC2)c2cccnc21)c1ccccc1 (stereo unspecified) | -4.57
O=C(NCCn1nc(C2CCNC2)c2cccnc21)c1ccccn1 (stereo unspecified) | -2.16
CN(C)CCn1c([C@@H]2CCCO2)cc2cccnc21 | 2.42
c1cnc2c(c1)cc([C@H]1CCCO1)n2CCN1CCCC1 | -1.04
Cc1ccc2c(c1)CN(C(=O)c1cccnc1)C(CN(C)C)CO2 (stereo unspecified) | 3.4
Cc1ccc2c(c1)CN(C(=O)c1cnc(C)cn1)C(CN(C)C)CO2 (stereo unspecified) | 14.1
CNC(=O)CCc1cc(C2CCNCC2)nc(C)n1 | -5.9
COc1ccc(CN(Cc2cnc(N)nc2)CC2CCCO2)c(OC)c1 (stereo unspecified) | -2.54
Cc1ccc(CN(Cc2[nH]cnc2C)C2CC(C)(C)NC(C)(C)C2)o1 | 17.5
Cc1ccc(CN(Cc2ccncc2)C2CC(C)(C)NC(C)(C)C2)o1 | -2.36
